Among the data in patent US9809598B2 (Merck Patent GmbH, priority 2014, dated 2017) are IC50 and EC50 values, retold here.

The target in one test is T1, PARP-1 (Homo sapiens, UniProt P09874).
T1 construct: purchased Enzo Life Sciences GmbH, Lörrach, Germany
Nature of the test: PARP-1 autoparsylation assay (HTRF). Conditions: His-tagged Parp-1, autoparsylation HTRF. Format: biochemical. The procedure, abridged:
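His-tagged enzyme auto-modifies itself using biotinylated NAD/NAD; product detected by TR-FRET between cryptate anti-His antibody and Xlent-streptavidin, as emission ratio.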

In a further test the target is T2, TNKS2 (Homo sapiens, UniProt Q9H2K2).
T2 construct: GST-tagged Tnks-2 (873-1166 aa, prepared in-house); made in house
T2 sequence (Q9H2K2 873-1166): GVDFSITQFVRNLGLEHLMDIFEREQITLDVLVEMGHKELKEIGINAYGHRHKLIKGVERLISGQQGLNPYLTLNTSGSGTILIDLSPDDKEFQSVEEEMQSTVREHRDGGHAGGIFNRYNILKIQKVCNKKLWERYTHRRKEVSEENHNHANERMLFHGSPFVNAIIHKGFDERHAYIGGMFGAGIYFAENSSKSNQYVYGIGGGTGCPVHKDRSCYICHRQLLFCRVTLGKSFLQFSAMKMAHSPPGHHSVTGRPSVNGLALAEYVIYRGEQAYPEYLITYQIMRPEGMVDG
Nature of the test: TNKS2 activity ELISA (autoparsylation assay). It counts as biochemical. Conditions: GST-tagged Tnks-2 (873-1166 aa); read-out: IC50 [M] TNKS2 ELISA. The procedure, abridged: (§1)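 GST-tagged TNKS1 or TNKS2 captured on glutathione plates and allowed to auto-PARsylate with biotinylated NAD with or without compound. Biotin-ADP-ribosylated enzyme detected by streptavidin-HRP and luminescence; IC50 relative to inhibitor-free reaction.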

Another test has as its system Tankyrases. Conditions: read-out: EC50 [M] TNKS cellular assay; DLD1 cells, 24 hours, Axin2 increase.
A further test addresses T3, TNKS1 (Homo sapiens, UniProt O95271).
T3 construct: GST-tagged Tnks-1 (1023-1327 aa, prepared in-house); made in house
Nature of the test: TNKS1 activity ELISA (autoparsylation assay). Format: biochemical. Conditions: GST-tagged Tnks-1 (1023-1327 aa). Put shortly: as §1

T3 sequence (O95271 1023-1327): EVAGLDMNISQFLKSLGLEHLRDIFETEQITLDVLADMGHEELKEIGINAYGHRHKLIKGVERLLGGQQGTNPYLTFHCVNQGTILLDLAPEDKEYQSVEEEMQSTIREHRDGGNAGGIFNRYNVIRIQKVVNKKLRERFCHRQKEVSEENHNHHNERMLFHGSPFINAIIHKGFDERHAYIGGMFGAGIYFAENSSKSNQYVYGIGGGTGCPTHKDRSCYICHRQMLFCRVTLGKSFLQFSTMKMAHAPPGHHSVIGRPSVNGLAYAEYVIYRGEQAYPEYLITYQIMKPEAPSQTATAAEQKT
T1 sequence (P09874 whole entry): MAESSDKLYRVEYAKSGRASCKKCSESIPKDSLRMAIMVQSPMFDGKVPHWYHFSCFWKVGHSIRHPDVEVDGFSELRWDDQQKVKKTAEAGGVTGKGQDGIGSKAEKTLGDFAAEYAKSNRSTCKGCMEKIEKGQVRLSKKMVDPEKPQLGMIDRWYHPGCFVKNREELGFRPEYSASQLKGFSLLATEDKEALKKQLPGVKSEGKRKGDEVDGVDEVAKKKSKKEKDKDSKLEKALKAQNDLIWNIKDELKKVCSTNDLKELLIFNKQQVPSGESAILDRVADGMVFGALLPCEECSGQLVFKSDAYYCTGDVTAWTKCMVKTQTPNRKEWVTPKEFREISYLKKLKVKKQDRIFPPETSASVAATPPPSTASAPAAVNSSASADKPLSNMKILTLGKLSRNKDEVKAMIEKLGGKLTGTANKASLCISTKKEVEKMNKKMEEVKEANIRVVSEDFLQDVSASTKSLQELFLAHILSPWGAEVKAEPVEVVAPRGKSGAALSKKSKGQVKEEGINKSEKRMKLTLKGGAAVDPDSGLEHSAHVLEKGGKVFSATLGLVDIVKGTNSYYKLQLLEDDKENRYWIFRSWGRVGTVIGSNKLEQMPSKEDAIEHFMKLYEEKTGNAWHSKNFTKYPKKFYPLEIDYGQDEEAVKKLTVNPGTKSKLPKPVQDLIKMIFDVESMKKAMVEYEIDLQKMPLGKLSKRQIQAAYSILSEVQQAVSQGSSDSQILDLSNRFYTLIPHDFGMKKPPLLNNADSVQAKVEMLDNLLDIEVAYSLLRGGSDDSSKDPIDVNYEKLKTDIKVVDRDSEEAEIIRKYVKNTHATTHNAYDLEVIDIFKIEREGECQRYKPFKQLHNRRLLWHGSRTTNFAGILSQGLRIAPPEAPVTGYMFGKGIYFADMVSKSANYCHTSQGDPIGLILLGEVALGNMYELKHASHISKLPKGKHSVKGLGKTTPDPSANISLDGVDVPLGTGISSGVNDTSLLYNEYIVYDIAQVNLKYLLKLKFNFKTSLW

With `Cc1csc2c(=O)[nH]c(CCCC(=O)N3CCC(c4cnc(N)c(-c5ncccn5)c4)CC3)nc12` [Compound C128, 2-{4-[4-(6-Amino-5-pyrimidin-2-yl-3-pyridyl)-1-piperidyl]-4-oxo-butyl}-7-methyl-3H-thieno[3,2-d]pyrimidin-4-one], the IC50 was found to be 230 nM against PARP-1, 7.9e-10 M on TNKS2 and 0.11 nM on TNKS1. Further, in the test with Tankyrases, the EC50 is 3.3e-09 M.
On the same counts, the results for `Cc1csc2c(=O)[nH]c(CCCC(=O)N3CCC(Oc4ccc(C#N)cc4)CC3)nc12` [Compound C130, 4-{{1-[4-(7-Methyl-4-oxo-3H-thieno[3,2-d]pyrimidin-2-yl)butanoyl]-4-piperidyl}-oxy}benzonitrile] are 320 nM, 2.1e-08 M, 50 nM and 3.3e-08 M.
For the molecule `Cc1csc2c(=O)[nH]c(CCCC(=O)N3CCC(C(=O)c4ccc(F)cc4)CC3)nc12` [Compound C131, 2-{4-[4-(4-Fluorobenzoyl)-1-piperidyl]-4-oxo-butyl}-7-methyl-3H-thieno[3,2-d]pyrimidin-4-one], the IC50 worked out at 270 nM against PARP-1, 2.1e-10 M at TNKS2 and 0.36 nM against TNKS1. Moreover, the EC50 in the test on Tankyrases came out at 1.6e-08 M.
For the molecule `COc1ccc(C(=O)C2CCN(C(=O)CCCc3nc4c(C)csc4c(=O)[nH]3)CC2)cc1C` [Compound C132, 2-{4-[4-(4-Methoxy-3-methyl-benzoyl)-1-piperidyl]-4-oxo-butyl}-7-methyl-3H-thieno[3,2-d]pyrimidin-4-one], the IC50 against PARP-1 was 440 nM; on TNKS2, 1.1e-10 M; against TNKS1, less than 0.1 nM. The EC50 with Tankyrases was 7.7e-10 M.
For `Cc1csc2c(=O)[nH]c(CCCC(=O)N3CCC(C(=O)c4ccc(C(C)(C)O)cc4)CC3)nc12` [Compound C133, 2-{4-{4-[4-(1-Hydroxy-1-methyl-ethyl)benzoyl]-1-piperidyl}-4-oxo-butyl}-7-methyl-3H-thieno[3,2-d]pyrimidin-4-one], in that order: 1000 nM, 7.5e-10 M, 2.1 nM and 6.4e-08 M.
Regarding `Cc1csc2c(=O)[nH]c(CCCC(=O)N3CCC(C(=O)c4cnn(C)c4)CC3)nc12` [Compound C135, 7-Methyl-2-{4-[4-(1-methyl-1H-pyrazole-4-carbonyl)-piperidin-1-yl]-4-oxo-butyl}-3H-thieno[3,2-d]pyrimidin-4-one], the IC50 against PARP-1 stood at 420 nM; at TNKS2 it was 4.7e-10 M; on TNKS1, 0.49 nM. Moreover, the EC50 in the test with Tankyrases was 3.9e-08 M.
For `COc1ccc(C(=O)C2CCN(C(=O)CCCc3nn4cccc4c(=O)[nH]3)CC2)cc1F` [Compound C136, 2-{4-[4-(3-Fluoro-4-methoxy-benzoyl)-piperidin-1-yl]-4-oxo-butyl}-3H-pyrrolo[2,1-f][1,2,4]triazin-4-one], in that order: 3100 nM, 2.1e-10 M, 0.25 nM and 3.6e-09 M.
For the molecule `N#Cc1cc(C2CCN(C(=O)CCCc3nn4cccc4c(=O)[nH]3)CC2)cnc1N` [Compound C138, 6-Amino-1′-[4-(4-oxo-3,4-dihydro-pyrrolo[2,1-f][1,2,4]triazin-2-yl)-butyryl]-1′,2′,3′,4′,5′,6′-hexahydro-[3,4′]bipyridinyl-5-carbonitrile], the figures for the IC50 against PARP-1, on TNKS2 and on TNKS1 were 3200 nM, 2.6e-09 M and 2.2 nM, respectively. The EC50 in the test on Tankyrases is 5.2e-08 M.
On to `Nc1ncc(C2CCN(C(=O)CCCc3nn4cccc4c(=O)[nH]3)CC2)cc1-c1ncccn1` [Compound C139, 2-[4-(6-Amino-5-pyrimidin-2-yl-3′,4′,5′,6′-tetrahydro-2′H-[3,4′]bipyridinyl-1′-yl)-4-oxo-butyl]-3H-pyrrolo[2,1-f][1,2,4]triazin-4-one], for which the figures for the IC50 against PARP-1, at TNKS2 and against TNKS1 were 3200 nM, 2.6e-10 M and 0.23 nM, respectively. The EC50 with Tankyrases is 3.4e-09 M.
`O=C(CCCc1nn2cccc2c(=O)[nH]1)N1CCC(c2nnc(-c3ccccc3)o2)CC1` [Compound C140, 2-{4-Oxo-4-[4-(5-phenyl-[1,3,4]oxadiazol-2-yl)-piperidin-1-yl]-butyl}-3H-pyrrolo[2,1-f][1,2,4]triazin-4-one]: the values for the IC50 against PARP-1, on TNKS2 and on TNKS1 were 3600 nM, 1e-08 M and 18 nM, respectively. In addition, in the test with Tankyrases, the EC50 worked out at 1e-07 M.
Consider `N#Cc1ccc(OC2CCN(C(=O)CCCc3nn4cccc4c(=O)[nH]3)CC2)cc1` [Compound C141, 4-{1-[4-(4-Oxo-3,4-dihydro-pyrrolo[2,1-f][1,2,4]triazin-2-yl)-butyryl]-piperidin-4-yloxy}-benzonitrile], for which the IC50 at PARP-1 was determined as 2600 nM; at TNKS2, 6.5e-08 M; against TNKS1, 100 nM. In addition, the EC50 with Tankyrases came to 6.8e-07 M.
For `O=C(c1ccc(F)cc1)C1CCN(C(=O)CCCc2nn3cccc3c(=O)[nH]2)CC1` [Compound C142, 2-{4-[4-(4-Fluoro-benzoyl)-piperidin-1-yl]-4-oxo-butyl}-3H-pyrrolo[2,1-f][1,2,4]triazin-4-one], in that order: 7200 nM, 1.4e-08 M, 14 nM and 2e-08 M.
Take `COc1ccc(C(=O)C2CCN(C(=O)CCCc3nn4cccc4c(=O)[nH]3)CC2)cc1C` [Compound C143, 2-{4-[4-(4-Methoxy-3-methyl-benzoyl)-piperidin-1-yl]-4-oxo-butyl}-3H-pyrrolo[2,1-f][1,2,4]triazin-4-one]: the figures for the IC50 on PARP-1, on TNKS2 and on TNKS1 were 4800 nM, 1.6e-10 M and 0.19 nM, respectively. The EC50 with Tankyrases turned out to be 1.7e-09 M.
On to `CC(C)(O)c1ccc(C(=O)C2CCN(C(=O)CCCc3nn4cccc4c(=O)[nH]3)CC2)cc1` [Compound C144, 2-(4-{4-[4-(1-Hydroxy-1-methyl-ethyl)-benzoyl]-piperidin-1-yl}-4-oxo-butyl)-3H-pyrrolo[2,1-f][1,2,4]triazin-4-one], for which the IC50 amounted to 11000 nM at PARP-1, 3.5e-09 M at TNKS2 and 7.3 nM on TNKS1. The EC50 in the test with Tankyrases was 8.3e-08 M.
Turning to `COc1ccc(C(=O)C2CCN(C(=O)CCCc3nn4c(C)ccc4c(=O)[nH]3)CC2)cc1F` [Compound C147, 2-{4-[4-(3-Fluoro-4-methoxy-benzoyl)-piperidin-1-yl]-4-oxo-butyl}-7-methyl-3H-pyrrolo[2,1-f][1,2,4]triazin-4-one], the IC50 on PARP-1 is 370 nM; at TNKS2, less than 1e-10 M; against TNKS1, less than 0.1 nM. The EC50 in the test with Tankyrases was 8.1e-10 M.
Consider `COc1ccc(C(=O)C2CCN(C(=O)CCCc3nn4c(C)ccc4c(=O)[nH]3)CC2)cn1` [Compound C148, 2-{4-[4-(6-Methoxy-pyridine-3-carbonyl)-piperidin-1-yl]-4-oxo-butyl}-7-methyl-3H-pyrrolo[2,1-f][1,2,4]triazin-4-one], for which the IC50 turned out to be 770 nM on PARP-1, 1.9e-10 M at TNKS2 and 0.28 nM against TNKS1. In the test on Tankyrases, the EC50 is 1.4e-09 M.
With `Cc1ccc2c(=O)[nH]c(CCCC(=O)N3CCC(c4cnc(N)c(C#N)c4)CC3)nn12` [Compound C149, 6-Amino-1′-[4-(7-methyl-4-oxo-3,4-dihydro-pyrrolo[2,1-f][1,2,4]triazin-2-yl)-butyryl]-1′,2′,3′,4′,5′,6′-hexahydro-[3,4′]bipyridinyl-5-carbonitrile], the IC50 against PARP-1 is 770 nM; on TNKS2, 3.8e-10 M; against TNKS1 it was 0.38 nM. Further, in the test on Tankyrases, the EC50 came out at 3.1e-09 M.
For the molecule `Cc1ccc2c(=O)[nH]c(CCCC(=O)N3CCC(c4cnc(N)c(-c5ncccn5)c4)CC3)nn12` [Compound C150, 2-[4-(6-Amino-5-pyrimidin-2-yl-3′,4′,5′,6′-tetrahydro-2′H-[3,4′]bipyridinyl-1′-yl)-4-oxo-butyl]-7-methyl-3H-pyrrolo[2,1-f][1,2,4]triazin-4-one], the results for the IC50 on PARP-1, at TNKS2 and against TNKS1 were 1300 nM, 2.8e-10 M and 0.23 nM, respectively. Moreover, in the test on Tankyrases, the EC50 stood at 1.1e-09 M.
For `Cc1ccc2c(=O)[nH]c(CCCC(=O)N3CCC(c4nnc(-c5ccccc5)o4)CC3)nn12` [Compound C151, 7-Methyl-2-{4-oxo-4-[4-(5-phenyl-[1,3,4]oxadiazol-2-yl)-piperidin-1-yl]-butyl}-3H-pyrrolo[2,1-f][1,2,4]triazin-4-one], the IC50 turned out to be 210 nM on PARP-1, 9.3e-10 M on TNKS2 and 1.4 nM on TNKS1. Further, the EC50 with Tankyrases was 1.9e-08 M.
Take `Cc1ccc2c(=O)[nH]c(CCCC(=O)N3CCC(C(=O)c4ccc(F)cc4)CC3)nn12` [Compound C153, 2-{4-[4-(4-Fluoro-benzoyl)-piperidin-1-yl]-4-oxo-butyl}-7-methyl-3H-pyrrolo[2,1-f][1,2,4]triazin-4-one]: the IC50 against PARP-1 was determined as 2000 nM; at TNKS2, 1.6e-10 M; on TNKS1, 0.17 nM. Moreover, the EC50 in the test with Tankyrases stood at 1.7e-09 M.
Turning to `COc1ccc(C(=O)C2CCN(C(=O)CCCc3nn4c(C)ccc4c(=O)[nH]3)CC2)cc1C` [Compound C154, 2-{4-[4-(4-Methoxy-3-methyl-benzoyl)-piperidin-1-yl]-4-oxo-butyl}-7-methyl-3H-pyrrolo[2,1-f][1,2,4]triazin-4-one], the figures for the IC50 on PARP-1, at TNKS2 and against TNKS1 were 610 nM, 1.3e-10 M and 0.16 nM, respectively. The EC50 in the test with Tankyrases was determined as 9.7e-10 M.
